In patent US9040717B2, “Pyrazole-amide compounds and pharmaceutical use thereof” (JAPAN TOBACCO INC., priority 2013, dated 2015):

Columns and labels:
[1] = tested on: adipose tissue PDH activity; test: Ex vivo PDH activation assay, adipose tissue; type: in vivo, Sprague-Dawley rats; conditions: non-fasting SD rats, vehicle 31 ± 10, mean ± S.D. (n = 3)
Protocol: (§1) The action of test compound on tissue PDH activity was evaluated. NADH production was detected via p-iodonitrotetrazolium violet (INT)-coupled system to measure PDH activity.
(§2) Normal male Sprague-Dawley rats were randomly allocated to the vehicle group and the test compound groups. The vehicle (0.5% aqueous methylcellulose solution, 5 mL/kg) or the test compound was orally administered to the rats. At 5 or 20 hr after administration, the rats were anesthetized with an intraperitoneal injection of sodium pentobarbital (60 mg/kg), and liver slices and epididymal adipose tissues were collected.
(§3) To the adipose tissues were rapidly added 3 volumes of an ice-cold homogenization buffer, and the mixtures were homogenized using a Polytron homogenizer. The homogenates were centrifuged at 600×g, 4° C. for 10 min to obtain the supernatant. The supernatants were centrifuged at 16,000×g, 4° C. for 10 min to collect the precipitates. The precipitates were washed by resuspension in the homogenization buffer (1 mL) and centrifuged in the same manner. The precipitates were frozen with liquid nitrogen and stored at −80° C. as the adipose tissue mitochondrial fraction.
(§4) The mitochondrial fractions were thawed and suspended with the sample buffer (0.25 mol/L sucrose, 20 mmol/L tris(hydroxymethyl)aminomethane hydrochloride (pH 7.5), 50 mmol/L potassium chloride, and 1 mL/L 4-(1,1,3,3-tetramethylbutyl)phenyl-polyethylene glycol (Triton X-100)). Active PDH activity (PDHa activity) and total PDH activity (PDHt activity) were measured to evaluate the PDH activity. For the measurement of the PDHt activity, equal amounts of the mitochondrial suspension and the activation buffer (0.25 mol/L sucrose, 20 mmol/L tris(hydroxymethyl)aminomethane hydrochloride (pH 7.5), 50 mmol/L potassium chloride, 1 mL/L Triton X-100, 4 mmol/L calcium chloride, 40 mmol/L magnesium chloride, 10 mmol/L sodium dichloroacetate) were mixed, and the mixtures were incubated at 37° C. for 10 min. Forty microliters of the mitochondrial suspensions diluted with a sample buffer were added to a 96-well microplate for activity measurement and blank measurement. Then 180 μL of the reaction mixture (0.056 mmol/L potassium phosphate buffer (pH 7.5), 5.6 mmol/L DL-carnitine, 2.8 mmol/L NAD, 0.22 mmol/L thiamin pyrophosphate, 0.11 mmol/L Coenzyme A, 1.1 mL/L Triton X-100, 1.1 mmol/L magnesium chloride, 1.1 g/L bovine serum albumin, 0.67 mmol/L INT, 7.2 μmol/L phenazine methosulfate, 28 mmol/L sodium oxamate) was added to each well, and then 20 μL of 50 mmol/L sodium pyruvate for activity measurement or water for blank measurement were added. The mixtures were incubated at room temperature under shading. The absorbances at 500-750 nm, which were attributable to reduction of INT, the final electron acceptor, were measured using a microplate reader over time and the changes in the absorbance were calculated. The PDH activity was calculated by subtraction of the change in absorbance of the blank well from that of the activity measurement well. The percentage of the PDHa activity to the PDHt activity was calculated and taken as an index of the PDH activation.

liver PDH activity = test: Ex vivo PDH activation assay, liver; type: in vivo, Sprague-Dawley rats; conditions: non-fasting SD rats, vehicle 13 ± 3, mean ± S.D. (n = 3)
Protocol: as §1, §2
as §3, with “liver slices” for “adipose tissues”, “9” for “3”, “of” for “of an”, “buffer (0.25 mol/L sucrose, 5 mmol/L tris(hydroxymethyl)aminomethane hydrochloride (pH 7.5), 2 mmol/L EDTA),” for “buffer,”, “supernatants (1 mL)” for “supernatants”, “liver” for “adipose tissue”
as §4

[2] = target: hERG current in hERG-transfected HEK293 cells (Homo sapiens (Human), UniProt Q12809); test: hERG whole cell patch clamp test; type: cell-based
Protocol: Using human ether-a-go-go related gene (hERG)-transfected HEK293 cells (Cytomyx Limited), an influence on hERG current was examined according to the whole cell patch clamp technique. The hERG-transfected HEK293 cells were passaged using a CO2 incubator (BNA-111, TABAI ESPEC CORP.) under the set conditions of 37° C., 5% CO2, saturated humidity. Culture containers used were Collagen Type I Coated 75 cm^2 flask (4123-010, AGC TECHNO GLASS CO., Ltd.) and Collagen Type I Coated 35 mm culture dish (4000-010, AGC TECHNO GLASS CO., Ltd.). The culture medium used was E-MEM (Eagle Minimum Essential Medium (Earle's Salts, Nikken biomedical laboratory) added with 10% FCS (Fetal calf serum, BioWest, L.L.C.) and 1% MEM Non-Essential Amino Acids Solution (NEAA, Invitrogen Corporation). Geneticin for the selection of hERG gene expressing cells was added thereto to a concentration of 400 μg/mL. As the cells for the measurement, 3×10^4 hERG-transfected HEK293 cells were plated on a 35 mm culture dish 4 to 7 days before measurement of the hERG current. The culture dish produced for the measurement contained the above-mentioned culture medium without geneticin (Invitrogen Corporation).
The highest evaluation concentration of each compound was determined from the highest concentration at which precipitation was not found in the standard extracellular fluid (NaCl: 140 mmol/L, KCl: 2.5 mmol/L, MgCl2:2 mmol/L, CaCl2: 2 mmol/L, HEPES: 10 mmol/L, glucose: 10 mmol/L (adjusted to pH 7.4 with Tris-base)). As the application method, each solution to be applied was ejected from a Y-tube having a tip diameter of about 0.25 mm, which was adjacent (about 2 mm) to the cells, and applied to the cells. The ejection rate was about 0.4 mL/min.
The experiment was performed at room temperature under a phase contrast microscope. The 35 mm culture dish plated with the cells was set on a measurement apparatus, and the standard extracellular fluid was continuously applied to the cells from the Y-tube. A glass electrode for the measurement was filled with an intracellular fluid (Potassium Gluconate: 130 mmol/L, KCl: 20 mmol/L, MgCl2: 1 mmol/L, ATP-Mg: 5 mmol/L, EGTA: 3.5 mmol/L, HEPES: 10 mmol/L (adjusted to pH 7.2 with Tris-base)). A conventional whole cell patch clamp method was applied to the cells, and the maintenance electric potential was set to −80 mV. Under a fixed electric potential, the whole cell current was amplified by an amplifier for patch clamp (AXOPATCH-200B, Axon Instruments, Inc.), and the data was loaded into a computer (IMC-P642400, Intermedical Co., Ltd.) using a data acquisition analysis software (pCLAMP 9.2, Axon Instruments, Inc.).
The measurement of the hERG current was performed in the following two steps. In both cases, the hERG current was initiated by giving a command potential (maintenance electric potential −80 mV, prepulse +20 mV, 1.5 sec, test-pulse −50 mV, 1.5 sec).
Step (1): The above-mentioned command potential was given at 0.1 Hz for 2 min.
Step (2): The above-mentioned command potential was subjected to P/3 subtraction of pCLAMP 9.2 to remove leak current. This was repeated three times and an average thereof was taken as hERG current.
Subsequent to step (1), Step (2) was performed (about 3 min), and the maximum tail current obtained by applying a test-pulse to the hERG current obtained by the method of step (2) was taken as hERG current value. Hereafter, the operations of (1) and (2) were alternately repeated until completion of the experiment and the hERG current value was measured.
Stable hERG current value was recorded three times (about 10 min), and the standard extracellular fluid was instantaneously exchanged with each application fluid. The hERG current value was measured three times (about 10 min) in the same manner during perfusion of the application fluid, and the current value obtained by the 3rd measurement was taken as hERG current value after perfusion of the application fluid. […]

[3] = Table 2, 5 hr after oral 3 mg/kg
[4] = Table 2, 20 hr after oral 3 mg/kg

Sequence of hERG current in hERG-transfected HEK293 cells (Q12809 whole entry): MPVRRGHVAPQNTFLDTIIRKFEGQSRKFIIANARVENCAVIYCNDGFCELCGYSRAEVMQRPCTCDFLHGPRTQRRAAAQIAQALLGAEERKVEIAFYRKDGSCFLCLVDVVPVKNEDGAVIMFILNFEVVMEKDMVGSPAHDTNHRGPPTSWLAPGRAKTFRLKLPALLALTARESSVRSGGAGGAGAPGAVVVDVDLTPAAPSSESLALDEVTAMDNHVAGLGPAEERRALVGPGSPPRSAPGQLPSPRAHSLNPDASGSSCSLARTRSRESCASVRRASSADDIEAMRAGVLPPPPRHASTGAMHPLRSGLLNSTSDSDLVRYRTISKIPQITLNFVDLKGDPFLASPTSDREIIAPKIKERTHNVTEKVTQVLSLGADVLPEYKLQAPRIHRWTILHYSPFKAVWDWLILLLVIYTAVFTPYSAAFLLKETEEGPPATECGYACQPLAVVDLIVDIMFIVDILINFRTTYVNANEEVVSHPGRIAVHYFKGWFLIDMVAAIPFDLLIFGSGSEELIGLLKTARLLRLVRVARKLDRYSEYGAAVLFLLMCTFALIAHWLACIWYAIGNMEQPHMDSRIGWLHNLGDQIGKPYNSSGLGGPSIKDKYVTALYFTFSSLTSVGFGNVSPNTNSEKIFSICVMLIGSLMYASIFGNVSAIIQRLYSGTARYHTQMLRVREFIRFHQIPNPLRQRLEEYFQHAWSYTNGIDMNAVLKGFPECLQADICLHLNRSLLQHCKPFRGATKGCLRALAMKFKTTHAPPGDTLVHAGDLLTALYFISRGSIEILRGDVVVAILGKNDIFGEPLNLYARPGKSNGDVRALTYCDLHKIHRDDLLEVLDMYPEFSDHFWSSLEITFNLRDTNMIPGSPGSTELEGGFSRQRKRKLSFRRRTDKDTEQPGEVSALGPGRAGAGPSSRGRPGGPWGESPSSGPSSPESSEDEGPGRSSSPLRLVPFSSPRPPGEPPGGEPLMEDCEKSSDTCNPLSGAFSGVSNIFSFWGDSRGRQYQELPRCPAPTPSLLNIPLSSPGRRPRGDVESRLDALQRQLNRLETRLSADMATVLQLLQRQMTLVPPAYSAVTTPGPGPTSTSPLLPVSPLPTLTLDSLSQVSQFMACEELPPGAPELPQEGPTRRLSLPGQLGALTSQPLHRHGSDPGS

Row | SMILES | PDHa activity (% of PDHt activity) [1, 3] | PDHa activity (% of PDHt activity) [1, 4] | PDHa activity (% of PDHt activity) (liver PDH activity; [3]) | PDHa activity (% of PDHt activity) (liver PDH activity; [4]) | hERG current Inhibition rate (%) ([2]; 3 μmol/L) | hERG current Inhibition rate (%) ([2]; 30 μmol/L)
1 | CC(C)(C(N)=O)n1cc(-c2cc(F)cc3c2-c2ccccc2[C@]3(O)C(F)(F)F)cn1 [Compound (D), 2-{4-[(9R)-2-Fluoro-9-hydroxy-9-(trifluoromethyl)-9H-fluoren-4-yl]-1H-pyrazol-1-yl}-2-methylpropanamide] | 43 ± 7 % of PDHt activity | 24 ± 3 % of PDHt activity | 41 ± 15 % of PDHt activity | 20 ± 1 % of PDHt activity | 9.4 | 67.5
2 | CC(C)(O)COc1cc(-c2cnn(CCO)c2)c2c(c1)[C@@](O)(C(F)(F)F)c1ccccc1-2 [Compound (C), (9R)-4-[1-(2-Hydroxyethyl)-1H-pyrazol-4-yl]-2-(2-hydroxy-2-methylpropoxy)-9-(trifluoromethyl)-9H-fluoren-9-ol] | 53 ± 4 % of PDHt activity | 28 ± 7 % of PDHt activity | 44 ± 5 % of PDHt activity | 13 ± 3 % of PDHt activity | 11.5 | 69.0
